US9427433B2, “Methods and compositions for enhancing fertility and/or inhibiting pregnancy failure and restoring glucose tolerance” (Queen's University at Kingston, priority 2011, dated 2016)

What was measured:
[1] = test system: NOD mice; settings: NOD mice at younger age, model for Type 1 diabetes; cited from earlier work
[2] = test system: pregnant diabetic NOD mice; assay: Pulse Wave Doppler of uterine arterial blood flow (resistance index); type: in vivo, mouse
Description: Uterine artery resistive index (RI) was calculated for each vessel according to the equation: RI=(Peak Systolic Velocity−Peak Diastolic Velocity)/Peak Systolic Velocity to assess maternal hemodynamic characteristics of tacrolimus-treated versus the normoglycemic and the vehicle-treated diabetic NOD mice.
Following the procedure described by Mu and Adamson (Am. J. Physiol. Heart Circ. Physiol. 291: H1421-H1428) for comparing patterns of blood flow hemodynamics in the uterine artery, transcutaneous ultrasound biomicroscopy and Doppler waveform recording were collected and analyzed from tacrolimus treated versus the diabetic and obese mice and their normoglycemic control cohort of mated pregnant mice using a microultrasound biomicroscope (Vivo770, Visual Sonic Inc., Toronto, Ontario, Canada) and a 30-40 MHz Real-Time Micro Visualization scanhead transducer operating at two frames per second (RMV704 or 708, VisualSonics Inc). […] Maternal heart and respiration rates were recorded via a physiological controller unit connected to the mechanical platform. […] Systolic and diastolic flow parameters were assessed in the selected point along the course of the uterine artery at 3-5 min intervals and the resistance index (RI=[PSV−EDV]/PSV) was calculated when EDV>0 to measure the pulsatility of arterial blood velocity waveforms.

[3] = test system: transplant patients; settings: cited from earlier work
[4] = test system: grossly obese and glucose intolerant NZO female mice; assay: Weight loss in grossly obese mice; type: in vivo, mouse; settings: 0.1 mg/kg every other day for four weeks; vs vehicle, p<0.05
Description: Data shown are mean±SEM of changes in body mass in mice administered tacrolimus (0.1 mg/kg every other day) for four weeks starting at week 16 (N=10/group). Statistical difference between groups was measured by one-way ANOVA at 95% confidence.
For studies on a grossly obese state, mice were maintained on the 60% high fat diet for 24 weeks starting at 7 weeks of age and designated as being type II diabetic according to methods described above.

[5] = test system: NZO mice fed a high fat diet; assay: Fasting serum glucose, fasting serum insulin and glucose tolerance, comparison of macrolides; type: in vivo, mouse; settings: vs vehicle
Description: Female mice were administered tacrolimus (0.1 mg/kg or 0.05 mg/kg, n=6/group), vehicle (n=10), pimecrolimus (0.1 mg/kg, n=6) or sirolimus (0.1 mg/kg, n=6) subcutaneously every other day for 3 weeks.
For the comparative evaluation of other macrolide drugs to tacrolimus, mice starting at 7 weeks of age were maintained on the high fat diet for a total of 13 weeks of study period. Mice were entered into the experiments when determined to be glucose intolerant as described above. Methods of drug administration and other experimental methods were as described above.
Glucose Tolerance Test (GTT): was performed according to standard protocol (Ayala et al 2010). Briefly, basal glucose levels were measured for conscious mice individually caged in 1000 cc plastic mouse caging using a one-touch ultra glucose strips and meter (Acqui-check Aviva, Roche, Montreal, Canada) and approximately 30 microliters of blood obtained via tail venipuncture prior to fasting for six hours in cages equipped with hardwood bedding. Fasting blood glucose was recorded at the end of the six hours fasting period. Mice were then tested for oral glucose tolerance (OGTT) or for insulin sensitivity (Si). For OGTT alert mice were then given 20% D-glucose (2 g/kg body weight) sterile syrup administered orally. For Si experiments mice were given 20% D-glucose (2 g/kg body weight) sterile syrup by intraperitoneal administration through a 1 ml D29 gage “½” insulin syringe (Fisher Scientific, Montreal, Canada). Then after, blood glucose was recorded at 15, 30, 45, 60, 90 and 120 minutes respectively. For Si experiments blood glucose was determined only at 15 minutes. Glucose tolerance graphs were generated by blotting mean±standard error of the mean (SEM) of the recorded glucose data per mouse per minute collection time. One way analysis of variance (ANOVA) followed by student t-test was performed to determine alpha values for statistical differences among mean blood glucose values across experimental mice groups.
Fasting immuno-reactive mouse insulin levels were quantitatively determined in citrated platelet-free plasma samples obtained from 6 hours-fasting mice using an Ultrasensitive mouse Insulin Eliza kit (#90080, Crystal chem., IL, USA) according to the manufacturer instructions. Briefly, platelet-free plasma were isolated from freshly obtained citrated whole blood samples of fasting mice and the provided insulin standards were incubated overnight on a shaking platform at 4 C^0 in a 96 wells plate coated with Guinea pig anti-insulin. Afterwards, unbound sample materials were thoroughly washed with the supplied wash buffers and the bound guinea pig anti-insulin/mouse insulin complex immobilized to the microplate wells were incubated with Horseradish peroxidase (HRP)-conjugated anti-insulin antibody for 40 minutes at room temperature with continuous agitation. Excess unbound HRP-conjugated anti-insulin antibodies were then washed excessively with wash buffers and the HRP-mediated color reaction was developed with the addition of 3,3′,5,5′ tetramethylbenzidine (TMB) substrate solution. The amount of insulin (ng/ml) present in the test samples were then measured via interpolation using the standard curve generated by plotting absorbance (at A^0450-A^0635) versus the corresponding concentration of a wide range (0.1-12.8 ng/ml) of mouse insulin standards according to the provider's instructions. Graphic representation of differences in mean±sem of plasma insulin among different groups of mice were blotted using Prism5 (La Jolla, Calif., USA) software and statistically significant differences (at 95% confidence) were calculated for the different test groups of mice using one way ANOVA followed by Bonferroni modified student t-test comparing differences between individual experimental groups.

[6] = test system: NOD, NZO and DIO mice; assay: Still births, malformations and live births of near-term pups; type: in vivo, mouse
From the text: FIGS. 13A through 13G show results of short term administration of tacrolimus reducing the rates of stillbirths and malformations associated with the diabetic gestation and restoration of normal term pregnancy with high rate of live births in the treated diabetic and obese mice. Numbers and external morphological features of near term (Gd.16.5) pups delivered to tacrolimus-treated versus those delivered to vehicle-treated diabetic and their normoglycemic control mice are depicted in FIGS. 13A through 13C, respectively. Fetal viability rates and external features of pups delivered to diabetic and obese mice with those of the tacrolimus-treated obese and type 2 diabetic mice are depicted in FIGS. 13D and 13E, respectively. Graph bars of FIGS. 13F and 13G display figure statistics.
The successful use of tacrolimus in reducing still birth rates and preventing fetal malformations in the diabetic and obese mice is supportive of the etiological role for IFN-γ in the pathophysiology of fetal loss in diabetes and obese subjects. FIG. 13 provides a comparison between the external morphological features and liver versus still birth rates in near-term (Gd.16.5) pups delivered to tacrolimus-treated NOD (FIG. 13A) versus vehicle-treated diabetic NOD (FIG. 13B) and their normoglycemic control mice (FIG. 13C). […]

[7] = 0.1 mg/kg s.c. every other day for 3 weeks

## C=CC[C@@H]1/C=C(\C)C[C@H](C)C[C@H](OC)[C@H]2O[C@@](O)(C(=O)C(=O)N3CCCC[C@H]3C(=O)O[C@H](/C(C)=C/[C@@H]3CC[C@@H](O)[C@H](OC)C3)[C@H](C)[C@@H](O)CC1=O)[C@H](C)C[C@@H]2OC [tacrolimus]
[1]
  suppression of overt diabetes, share of treated NOD mice: 84%
[2]; Doppler waveform, p<0.05 vs vehicle-treated diabetic mice
  treated pregnant diabetic mice with sustained decidual arteriolar flow velocity and normalized vascular resistance to uterine blood flow: 88%
[2]; throughout pregnancy
  uterine arterial hemodynamics: improved uterine arterial hemodynamics
[3]
  safety of use during pregnancy: safe drug for use during pregnancy
[4]
  weight loss: induced a significant weight loss
[5]; [7]
  fasting basal serum glucose: normalized fasting basal serum glucose concentrations
  fasting basal serum insulin: significantly reduced fasting basal serum insulin concentrations
[5]; tacrolimus 0.1 or 0.05 mg/kg, pimecrolimus 0.1 mg/kg, sirolimus 0.1 mg/kg s.c. every other day for 3 weeks
  insulin secretion in response to a hyperglycemic challenge: significantly improved insulin secretion
[6]; near-term (Gd.16.5) pups
  rates of still births and malformations: reduced the rates of still births and malformations
[6]; treated diabetic and obese mice
  term pregnancy and live births: restored normal term pregnancy with high rate of live births
